pIC50, pKi: −log10 of the molar value.
How the values were obtained:
[1] = Toxicity in mouse assessed as lethal dose; settings: in vivo
Acetylcholinesterase [2] = target: T1, Acetylcholinesterase (Homo sapiens, UniProt P22303); test: Binding affinity to AChE (unknown origin) assessed as inhibition constant
Carbonic anhydrase 1 = Carbonic anhydrase 1 (Homo sapiens, UniProt P00915); test: Binding affinity to human CA1 assessed as inhibition constant using p-nitrophenylacetate as substrate by spectrophotometry
Acetylcholinesterase [3] = target: T1, Acetylcholinesterase; test: Binding affinity to AChE (unknown origin) assessed as inhibition constant using acetylthiocholine iodide as substrate preincubated for 10 mins followed by substrate addition by Ellman's method
Carbonic anhydrase 2 = Carbonic anhydrase 2 (Homo sapiens, UniProt P00918); test: Binding affinity to human CA2 assessed as inhibition constant using p-nitrophenylacetate as substrate by spectrophotometry
Cholinesterase [4] = target: T2, Cholinesterase (Homo sapiens, UniProt P06276); test: Inhibition of human plasma BChE using S-butyrylthiocholine as substrate by Ellman's method
Acetylcholinesterase [5] = target: T1, Acetylcholinesterase; test: Inhibition of human erythrocyte AChE using acetyl-(beta-methyl)thiocholine as substrate by Ellman's method
[6] = target: T3, Cholinesterases; ACHE & BCHE (Homo sapiens) (UniProt P06276+P22303); test: Selectivity index, ratio of IC50 for human plasma BChE to IC50 for human erythrocyte AChE; format: protein assay
Cholinesterase [7] = target: T2, Cholinesterase; test: Binding affinity to human BChE assessed as inhibition constant
Acetylcholinesterase [8] = target: T1, Acetylcholinesterase; test: Binding affinity to human AChE assessed as inhibition constant
[9] = target: T3, Cholinesterases; ACHE & BCHE (Homo sapiens); test: Selectivity index, ratio of IC50 for AChE (unknown origin) to BChE (unknown origin); format: protein assay
Acetylcholinesterase [10] = target: Acetylcholinesterase (Torpedo californica, UniProt P04058)
Description: Inhibition of Pacific electric ray AChE using acetylthiocholine iodide as substrate by Ellman's method

Cholinesterase [11] = target: T2, Cholinesterase; test: Inhibition of human whole red blood cells BChE using butyrylthiocholine iodide as substrate incubated for 25 mins by Ellman's method
[12] = target: T3, Cholinesterases; ACHE & BCHE (Homo sapiens); test: Selectivity index, ratio of IC50 for human whole red blood cells BChE to IC50 for human whole red blood cells AChE
Acetylcholinesterase [13] = target: T1, Acetylcholinesterase; test: Inhibition of human whole red blood cells AChE using acetylthiocholine iodide as substrate incubated for 25 mins by Ellman's method
[14] = target: T4, Amine oxidase [flavin-containing] B (Homo sapiens, UniProt P27338); test: Inhibition of recombinant human MAO-B using p-tyramine as substrate preincubated for 15 mins followed by substrate addition measured upto 20 mins by Amplex red assay
T4 sequence (P27338 whole entry): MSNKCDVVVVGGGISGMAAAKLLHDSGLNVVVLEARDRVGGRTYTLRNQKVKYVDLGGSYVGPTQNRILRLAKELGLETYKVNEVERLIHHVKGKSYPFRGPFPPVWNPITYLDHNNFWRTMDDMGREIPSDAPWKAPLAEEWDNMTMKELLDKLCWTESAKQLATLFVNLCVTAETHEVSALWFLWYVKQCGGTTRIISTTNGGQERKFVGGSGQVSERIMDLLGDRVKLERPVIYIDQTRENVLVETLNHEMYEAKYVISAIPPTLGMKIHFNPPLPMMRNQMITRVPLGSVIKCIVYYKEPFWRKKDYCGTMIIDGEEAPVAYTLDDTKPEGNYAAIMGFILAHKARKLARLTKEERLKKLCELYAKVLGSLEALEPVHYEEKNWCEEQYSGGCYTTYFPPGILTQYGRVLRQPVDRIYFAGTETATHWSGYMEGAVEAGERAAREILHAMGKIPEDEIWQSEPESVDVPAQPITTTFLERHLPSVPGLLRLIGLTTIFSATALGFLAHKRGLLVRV

Acetylcholinesterase [15] = target: T1, Acetylcholinesterase; test: Inhibition of human erythrocyte AChE using acetylthiocholine iodide as substrate preincubated for 6 mins followed by substrate addition measured upto 180 secs by Ellman's method
[16] = target: Muscarinic acetylcholine receptor M3 (Homo sapiens, UniProt P20309); test: Binding affinity to Muscarinic acetylcholine receptor M3 (unknown origin) assessed as inhibition constant
Acetylcholinesterase [17] = target: T1, Acetylcholinesterase; test: Inhibition of human AChE
[18] = target: Muscarinic acetylcholine receptor M1 (Homo sapiens, UniProt P11229); test: Binding affinity to Muscarinic acetylcholine receptor M1 (unknown origin) assessed as inhibition constant
[19] = target: Muscarinic acetylcholine receptor M2 (Homo sapiens, UniProt P08172); test: Binding affinity to Muscarinic acetylcholine receptor M2 (unknown origin) assessed as inhibition constant
[20] = target: T4, Amine oxidase [flavin-containing] B; test: Inhibition of MAO-B (unknown origin)
Acetylcholinesterase [21] = target: T5, Acetylcholinesterase (Rattus norvegicus, UniProt P37136); test: Inhibition of rat AChE by Ellman's method
T5 sequence (P37136 whole entry): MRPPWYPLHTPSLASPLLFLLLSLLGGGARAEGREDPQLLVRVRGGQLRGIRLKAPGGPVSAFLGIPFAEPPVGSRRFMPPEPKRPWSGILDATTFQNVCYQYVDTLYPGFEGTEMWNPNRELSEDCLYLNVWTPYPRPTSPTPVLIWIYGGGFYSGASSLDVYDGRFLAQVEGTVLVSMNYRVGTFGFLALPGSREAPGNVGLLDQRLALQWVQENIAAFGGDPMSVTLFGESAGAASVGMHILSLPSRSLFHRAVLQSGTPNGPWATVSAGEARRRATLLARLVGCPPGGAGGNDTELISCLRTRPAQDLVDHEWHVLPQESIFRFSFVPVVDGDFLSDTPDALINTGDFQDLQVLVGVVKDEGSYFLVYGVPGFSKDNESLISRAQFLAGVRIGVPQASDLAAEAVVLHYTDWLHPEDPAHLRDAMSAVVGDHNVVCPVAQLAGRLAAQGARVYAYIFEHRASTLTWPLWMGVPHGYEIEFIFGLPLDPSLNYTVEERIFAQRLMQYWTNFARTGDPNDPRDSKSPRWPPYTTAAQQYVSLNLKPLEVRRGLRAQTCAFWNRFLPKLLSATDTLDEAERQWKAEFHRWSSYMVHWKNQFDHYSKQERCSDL

[22] = target: T6, Amine oxidase [flavin-containing] A (Homo sapiens, UniProt P21397); test: Inhibition of MAO-A (unknown origin)
T6 sequence (P21397 whole entry): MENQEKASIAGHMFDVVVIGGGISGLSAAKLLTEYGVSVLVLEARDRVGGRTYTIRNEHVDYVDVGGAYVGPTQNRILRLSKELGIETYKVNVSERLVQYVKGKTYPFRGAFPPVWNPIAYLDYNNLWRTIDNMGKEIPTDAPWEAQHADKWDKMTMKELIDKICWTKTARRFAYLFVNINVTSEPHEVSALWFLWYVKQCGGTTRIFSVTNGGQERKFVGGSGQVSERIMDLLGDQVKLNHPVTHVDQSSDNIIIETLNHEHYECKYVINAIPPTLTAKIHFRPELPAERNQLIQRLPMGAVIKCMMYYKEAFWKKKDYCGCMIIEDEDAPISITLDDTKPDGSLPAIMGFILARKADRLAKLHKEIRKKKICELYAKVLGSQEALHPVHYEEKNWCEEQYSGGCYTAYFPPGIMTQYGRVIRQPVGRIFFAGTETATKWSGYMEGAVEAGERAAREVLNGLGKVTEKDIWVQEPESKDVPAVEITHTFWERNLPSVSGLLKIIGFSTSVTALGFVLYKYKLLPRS

[23] = target: T6, Amine oxidase [flavin-containing] A; test: Inhibition of recombinant human MAO-A using p-tyramine as substrate preincubated for 15 mins followed by substrate addition measured upto 20 mins by Amplex red assay
[24] = target: High affinity cGMP-specific 3',5'-cyclic phosphodiesterase 9A (Homo sapiens, UniProt O76083); test: Inhibition of PDE9A (unknown origin)
Cholinesterase [25] = target: Cholinesterase (Equus caballus, UniProt P81908); test: Inhibition of equine BChE
Cholinesterase [26] = target: T2, Cholinesterase; test: Binding affinity of human serum BChE assessed as inhibition constant by Ellman's method
[27] = target: T3, Cholinesterases; ACHE & BCHE (Homo sapiens); test: Selectivity index, ratio of IC50 for recombinant human serum AChE to IC50 for recombinant human serum BChE; format: protein assay
Cholinesterase [28] = target: T2, Cholinesterase; test: Inhibition of recombinant human serum BChE using butyrylthiocholine iodide as substrate preincubated for 20 mins followed by substrate addition measured for 45 to 90 mins by Ellman's method
[29] = target: Fatty-acid amide hydrolase 1 (Rattus norvegicus, UniProt P97612); test: Displacement of [14C]-ethanolamine from FAAH derived from rat brain membrane fraction preincubated for 20 mins followed by susbstrate addition by scintillation counting method; format: cell membranes
Sequence of Fatty-acid amide hydrolase 1 (P97612 whole entry): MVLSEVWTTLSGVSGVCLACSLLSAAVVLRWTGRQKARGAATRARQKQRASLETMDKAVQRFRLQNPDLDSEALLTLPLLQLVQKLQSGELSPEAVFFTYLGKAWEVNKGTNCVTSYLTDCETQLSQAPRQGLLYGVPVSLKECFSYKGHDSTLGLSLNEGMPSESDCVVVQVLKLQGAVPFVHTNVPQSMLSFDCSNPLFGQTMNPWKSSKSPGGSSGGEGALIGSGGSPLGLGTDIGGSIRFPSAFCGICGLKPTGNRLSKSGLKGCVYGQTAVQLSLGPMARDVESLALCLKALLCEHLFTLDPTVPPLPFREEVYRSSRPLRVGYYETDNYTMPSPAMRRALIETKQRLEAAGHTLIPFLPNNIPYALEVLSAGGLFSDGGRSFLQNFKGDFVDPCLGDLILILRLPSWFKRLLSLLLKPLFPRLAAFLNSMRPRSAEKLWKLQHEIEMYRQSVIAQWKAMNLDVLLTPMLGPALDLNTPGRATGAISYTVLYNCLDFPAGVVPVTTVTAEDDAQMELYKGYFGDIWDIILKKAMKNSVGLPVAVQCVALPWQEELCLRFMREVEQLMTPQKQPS

T3 sequence (P06276 whole entry, looked up): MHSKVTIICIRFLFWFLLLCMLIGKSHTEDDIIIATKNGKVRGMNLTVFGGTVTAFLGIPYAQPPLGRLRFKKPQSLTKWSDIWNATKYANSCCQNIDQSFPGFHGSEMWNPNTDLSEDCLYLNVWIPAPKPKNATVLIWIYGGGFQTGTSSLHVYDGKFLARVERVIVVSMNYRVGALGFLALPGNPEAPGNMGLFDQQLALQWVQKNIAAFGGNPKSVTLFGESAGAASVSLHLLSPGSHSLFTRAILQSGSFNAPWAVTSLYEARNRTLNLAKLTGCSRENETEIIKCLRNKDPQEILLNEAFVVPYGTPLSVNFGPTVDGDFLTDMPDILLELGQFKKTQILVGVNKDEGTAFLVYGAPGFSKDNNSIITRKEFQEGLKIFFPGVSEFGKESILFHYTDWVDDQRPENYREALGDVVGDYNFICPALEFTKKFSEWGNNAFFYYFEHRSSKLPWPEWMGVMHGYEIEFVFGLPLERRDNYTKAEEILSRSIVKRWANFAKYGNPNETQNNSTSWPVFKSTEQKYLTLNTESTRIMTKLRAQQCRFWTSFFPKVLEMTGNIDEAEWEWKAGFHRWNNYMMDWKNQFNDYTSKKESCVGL
T3 sequence (P22303 whole entry, looked up): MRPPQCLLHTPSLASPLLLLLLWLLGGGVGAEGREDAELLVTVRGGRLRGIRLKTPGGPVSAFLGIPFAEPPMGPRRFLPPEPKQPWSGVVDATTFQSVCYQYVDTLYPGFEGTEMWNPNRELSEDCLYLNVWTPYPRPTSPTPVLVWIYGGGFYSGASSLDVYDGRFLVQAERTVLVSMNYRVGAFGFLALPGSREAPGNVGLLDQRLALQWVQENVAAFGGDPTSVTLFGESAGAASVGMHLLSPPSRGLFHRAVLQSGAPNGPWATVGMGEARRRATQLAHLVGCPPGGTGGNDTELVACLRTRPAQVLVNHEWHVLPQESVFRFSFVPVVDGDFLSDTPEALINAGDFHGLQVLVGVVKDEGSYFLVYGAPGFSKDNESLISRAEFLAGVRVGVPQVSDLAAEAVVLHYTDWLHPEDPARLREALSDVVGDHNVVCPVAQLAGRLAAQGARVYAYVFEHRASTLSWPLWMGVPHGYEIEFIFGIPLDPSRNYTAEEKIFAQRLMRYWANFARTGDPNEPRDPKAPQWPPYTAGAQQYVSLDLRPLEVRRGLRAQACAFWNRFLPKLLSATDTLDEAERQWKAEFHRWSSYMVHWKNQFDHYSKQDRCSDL
T2 sequence (P06276 whole entry): as the sequence (P06276 whole entry, looked up) above
T1 sequence (P22303 whole entry): as the sequence (P22303 whole entry, looked up) above
Sequence of Muscarinic acetylcholine receptor M3 (P20309 whole entry): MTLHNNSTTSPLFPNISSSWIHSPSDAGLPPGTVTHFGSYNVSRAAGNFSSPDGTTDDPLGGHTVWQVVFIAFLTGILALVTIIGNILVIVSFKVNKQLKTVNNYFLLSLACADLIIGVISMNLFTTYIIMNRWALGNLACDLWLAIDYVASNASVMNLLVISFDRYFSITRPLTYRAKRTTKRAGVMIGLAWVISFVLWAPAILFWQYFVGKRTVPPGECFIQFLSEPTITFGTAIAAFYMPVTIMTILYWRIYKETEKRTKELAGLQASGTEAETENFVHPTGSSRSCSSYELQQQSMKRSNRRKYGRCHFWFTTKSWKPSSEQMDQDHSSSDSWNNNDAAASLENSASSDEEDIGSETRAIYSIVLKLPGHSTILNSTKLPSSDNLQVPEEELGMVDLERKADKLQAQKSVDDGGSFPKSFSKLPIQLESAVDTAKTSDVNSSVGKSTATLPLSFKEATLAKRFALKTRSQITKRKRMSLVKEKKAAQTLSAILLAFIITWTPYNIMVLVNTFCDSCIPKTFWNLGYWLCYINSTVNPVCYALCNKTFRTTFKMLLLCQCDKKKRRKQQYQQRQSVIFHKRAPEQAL
Sequence of Muscarinic acetylcholine receptor M1 (P11229 whole entry): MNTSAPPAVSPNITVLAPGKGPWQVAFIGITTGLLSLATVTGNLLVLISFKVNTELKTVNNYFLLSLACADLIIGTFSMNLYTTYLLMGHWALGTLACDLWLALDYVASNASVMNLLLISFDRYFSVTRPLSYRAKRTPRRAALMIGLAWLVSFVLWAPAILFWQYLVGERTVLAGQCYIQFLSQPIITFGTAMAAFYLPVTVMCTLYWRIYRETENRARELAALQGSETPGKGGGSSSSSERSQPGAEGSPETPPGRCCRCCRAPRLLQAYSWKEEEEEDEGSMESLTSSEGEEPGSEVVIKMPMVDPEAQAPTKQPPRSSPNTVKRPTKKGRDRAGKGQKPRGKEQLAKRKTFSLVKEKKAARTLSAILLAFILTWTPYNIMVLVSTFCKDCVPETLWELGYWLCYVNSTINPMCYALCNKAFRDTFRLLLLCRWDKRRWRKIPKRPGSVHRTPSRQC
Sequence of Cholinesterase (Equus caballus, UniProt P81908) (P81908 whole entry): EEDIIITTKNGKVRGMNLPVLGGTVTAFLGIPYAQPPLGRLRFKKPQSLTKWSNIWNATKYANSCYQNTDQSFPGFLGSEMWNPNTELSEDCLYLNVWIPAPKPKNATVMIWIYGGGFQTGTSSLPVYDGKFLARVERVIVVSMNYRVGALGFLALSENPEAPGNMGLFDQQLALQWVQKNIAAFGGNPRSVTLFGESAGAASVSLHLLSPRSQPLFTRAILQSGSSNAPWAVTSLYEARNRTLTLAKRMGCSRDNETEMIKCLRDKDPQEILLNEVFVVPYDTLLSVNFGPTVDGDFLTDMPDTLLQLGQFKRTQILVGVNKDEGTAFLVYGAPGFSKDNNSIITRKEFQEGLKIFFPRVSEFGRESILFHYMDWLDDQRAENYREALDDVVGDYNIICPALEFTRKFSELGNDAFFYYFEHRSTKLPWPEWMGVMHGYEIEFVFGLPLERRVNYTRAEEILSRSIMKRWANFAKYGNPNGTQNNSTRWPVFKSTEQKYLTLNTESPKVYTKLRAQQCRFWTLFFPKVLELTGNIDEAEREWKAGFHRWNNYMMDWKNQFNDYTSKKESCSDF
Sequence of Carbonic anhydrase 1 (P00915 whole entry): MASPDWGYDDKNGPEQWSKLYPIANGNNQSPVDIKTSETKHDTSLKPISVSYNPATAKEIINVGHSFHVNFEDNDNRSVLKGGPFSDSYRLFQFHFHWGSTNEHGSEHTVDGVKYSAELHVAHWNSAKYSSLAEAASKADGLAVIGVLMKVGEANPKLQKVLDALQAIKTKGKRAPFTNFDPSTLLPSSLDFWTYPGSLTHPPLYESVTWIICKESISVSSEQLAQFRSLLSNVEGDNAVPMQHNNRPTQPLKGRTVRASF
Sequence of High affinity cGMP-specific 3',5'-cyclic phosphodiesterase 9A (O76083 whole entry): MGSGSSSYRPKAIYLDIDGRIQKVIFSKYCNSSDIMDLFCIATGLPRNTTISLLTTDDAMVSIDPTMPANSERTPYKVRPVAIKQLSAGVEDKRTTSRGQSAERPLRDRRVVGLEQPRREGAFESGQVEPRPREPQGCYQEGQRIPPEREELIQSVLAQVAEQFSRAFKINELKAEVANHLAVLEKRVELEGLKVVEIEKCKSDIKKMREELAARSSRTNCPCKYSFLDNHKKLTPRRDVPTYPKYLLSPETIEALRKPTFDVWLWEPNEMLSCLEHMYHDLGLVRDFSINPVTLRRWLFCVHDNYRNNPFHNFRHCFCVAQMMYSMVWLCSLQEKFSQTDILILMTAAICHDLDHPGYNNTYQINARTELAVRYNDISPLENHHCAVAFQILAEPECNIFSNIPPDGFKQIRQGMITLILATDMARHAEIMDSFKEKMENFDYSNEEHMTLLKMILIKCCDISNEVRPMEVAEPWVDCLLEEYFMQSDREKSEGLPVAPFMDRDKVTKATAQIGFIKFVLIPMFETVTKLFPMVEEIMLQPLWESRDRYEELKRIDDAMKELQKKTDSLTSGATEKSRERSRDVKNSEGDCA
Sequence of Muscarinic acetylcholine receptor M2 (P08172 whole entry): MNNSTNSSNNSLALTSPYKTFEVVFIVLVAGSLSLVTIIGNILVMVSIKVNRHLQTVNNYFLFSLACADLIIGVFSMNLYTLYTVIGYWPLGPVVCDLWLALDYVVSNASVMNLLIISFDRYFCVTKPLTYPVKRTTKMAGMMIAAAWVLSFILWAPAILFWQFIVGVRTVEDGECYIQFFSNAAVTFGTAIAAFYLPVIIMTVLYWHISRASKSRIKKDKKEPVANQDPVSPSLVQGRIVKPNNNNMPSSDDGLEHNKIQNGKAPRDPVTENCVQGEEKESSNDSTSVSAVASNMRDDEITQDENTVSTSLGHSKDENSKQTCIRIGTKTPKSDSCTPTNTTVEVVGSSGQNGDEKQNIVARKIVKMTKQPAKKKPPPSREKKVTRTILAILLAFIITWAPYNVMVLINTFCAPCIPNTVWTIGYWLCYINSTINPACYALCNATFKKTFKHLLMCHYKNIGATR

SMILES: CCCCCCCNC(=O)Oc1ccc2c(c1)[C@]1(C)CCN(C)[C@@H]1N2C [EPTASTIGMINE]
- LD50 [1]: 35 mg/kg
- pKi (Acetylcholinesterase [2]): 7.00

SMILES: COc1cccc2c1CCC(NC(=O)OCc1ccccc1)C2 (configuration not stated)
- pKi (Carbonic anhydrase 1): 8.23
- pKi (Acetylcholinesterase [3]): 9.58
- pKi (Carbonic anhydrase 2): 8.13

SMILES: CNC(=O)Oc1ccc2c(c1)[C@]1(C)CCO[C@@H]1N2C
- pIC50 (Cholinesterase [4]): 8.17
- pIC50 (Acetylcholinesterase [5]): 8.40
- Ratio IC50 [6]: 27

SMILES: O=C(Nc1ccccc1)OC1CN2CCC1CC2 (configuration not stated)
- pKi (Cholinesterase [7]): 5.52
- pKi (Acetylcholinesterase [8]): 6.00

SMILES: CCc1ccccc1NC(=O)Oc1ccc2c(c1)[C@]1(C)CC[N+](C)([O-])[C@@H]1N2C (some centres not stated)
- Ratio IC50 [9]: 115
- pIC50 (Acetylcholinesterase [10]): 8.32

SMILES: COc1ccc(NC(=O)Oc2ccc3c(c2)[C@]2(O)CCN(C(C)=O)[C@@H]2N3)cc1
- pIC50 (Cholinesterase [11]): 5.64
- Ratio IC50 [12]: > 43
- pIC50 (Acetylcholinesterase [13]): < 4.00

SMILES: Cc1c(Cl)c(=O)oc2cc(OCCCCSC(=S)N3CCCCC3C)ccc12 (configuration not stated)
- pIC50 [14]: 6.06
- pIC50 (Acetylcholinesterase [15]): 8.17

SMILES: CNC(=O)Oc1cccc2c1CCC1C2CCN1CCC1CCCCC1 (configuration not stated)
- pKi [16]: 5.82
- pIC50 (Acetylcholinesterase [17]): 7.24
- pKi [18]: 6.18
- pKi [19]: 6.88

SMILES: CCN(CC)C(=O)OC1C[N+]2(C)CCC1CC2 (configuration not stated)
- pKi (Cholinesterase [7]): 5.82
- pKi (Acetylcholinesterase [8]): 5.46

SMILES: CC/N=C1\CCc2c1n(C)c1ccc(OC(=O)NC)c(Br)c21
- pIC50 [20]: < 3.00
- pIC50 (Acetylcholinesterase [21]): 6.85
- pIC50 [22]: 6.68

SMILES: CC(=O)N1CC[C@@]2(O)c3cc(OC(=O)Nc4ccccc4)ccc3N[C@@H]12
- pIC50 (Cholinesterase [11]): < 4.00
- Ratio IC50 [12]: > 400
- pIC50 (Acetylcholinesterase [13]): 6.60

SMILES: Cc1c(Cl)c(=O)oc2cc(OCCCCSC(=S)N3C(C)CCCC3C)ccc12 (configuration not stated)
- pIC50 [23]: 5.23
- pIC50 (Acetylcholinesterase [15]): 6.94

SMILES: CCN(C)C(=O)Oc1ccc(CNc2nc3c(cnn3C3CCCC3)c(=O)[nH]2)cc1OC
- pIC50 [24]: 7.85
- pIC50 (Cholinesterase [25]): 5.48

SMILES: CC(C)c1ccc(NC(=O)Oc2ccc3c(c2)[C@]2(C)CCN(Cc4ccc(F)cc4)[C@@H]2N3C)cc1
- pKi (Cholinesterase [26]): 6.47

SMILES: CN(CCCOc1ccc2ccc(=O)oc2c1)Cc1cccc(OC(=O)NC2CCCC2)c1
- Ratio IC50 [27]: 61.9
- pIC50 (Cholinesterase [28]): 8.19
- pIC50 [29]: 8.60

Reference: ChEMBL document CHEMBL5214927, “Recent advance on carbamate-based cholinesterase inhibitors as potential multifunctional agents against Alzheimer's disease” (Eur J Med Chem, 2022)
